Results as given in patent US20030100565A1, “Method for the treatment or prevention of atopic dermatitis” (Boehringer Ingelheim International GmbH, priority 2001, published 2003).

Assays:
[1] = system: SP-induced scratching; experiment: Effect on SP-induced scratching in guinea pigs; type: in vivo, Hartley guinea pigs; settings: for effect on SP-induced scratching compared with Compounds Ia and Id: dose not stated
Method: Assay: Effect of NK1 Receptor Antagonist Ia, on SP-Induced Scratching in Guinea Pigs
Male Hartley guinea pigs (Japan SLC, Ltd., Shizuoka, Japan) of 4-5 weeks old weighing 275-395 g were used in the experiment. The guinea pigs were fasted more than 12 hours prior to the initiation of the experiment with free access to water. 6-8 guinea pigs were used for each group.
Prior to the recording of behaviour, the guinea pigs (one animal per cage) were kept in a cage for observation for at least 1 hour for acclimation. Compound Ia was dosed at 1 hour prior to the administration of substance P. […] SP (150 μg/body) was injected intradermally in volume of 20 μL into the rostral back (around interscapular level). Immediately after the administration of SP, the behaviour of the guinea pigs were recorded using VHS video camera for 1 hour with any persons kept out the observation room (sound proof condition). Playing back of video was served for counting the number of scratching behaviour.
The total scratching counts during 60 min of observation were analysed by one-way ANOVA and Dunnett's multiple comparison test between vehicle treatment and drug treatments; p<0.05 value was considered as significant. Scratching counts were expressed as the mean+S.E.

[2] = system: SP-induced scratching; experiment: Effect on SP-induced scratching in mice; type: in vivo, ddY mice; settings: for scratching behavior count induced by SP: 1 h before intradermal SP, FIG. 1, control 50.5±12.1, mean±S.E.; for scratching behaviour count induced by SP: another experiment; for effect on SP-induced scratching compared with Compounds Ia and Ib: mice, dose not stated
Method: Assay: Effect of NK1 Receptor Antagonist Ia, on SP-Induced Scratching in Mice Male ddY mice (Japan SLC, Ltd., Shizuoka, Japan) of 8-9 weeks of ages weighing 34-43 g, were used in the experiment. Mice were fasted 4 hours prior to the initiation of the experiment with free access to water. Epinastine and NK1 receptor antagonist of formulae Ia, Ib, Ic and Id (Compounds Ia to Id) were provided by Boehringer Ingelheim Pharma K.G. (Germany). SP (lot. No. 80K5 104) was supplied by Sigma Co., Ltd. (USA) and dissolved in physiological saline. Before recording of behavior, the mice (two animals per one cage) were put into an acryl cage for at least 5 hours for acclimation. […] Playing back of video served for counting scratching behavior. […] Data were analyzed by One-way ANOVA and post hoc Tukey test; p<0.05 value was considered. Data presented as the mean±S.E.

[3] = system: SP-induced scratching; settings: mice; reported by Inagaki et al., Eur J Pharmacol 2000; cited from earlier work

CN(CCc1cc(C(F)(F)F)cc(C(F)(F)F)c1)C(=O)[C@H](c1ccccc1)N1CCN(CC2CC2)CC1 [Compound Ia]
inhibition of scratching behaviour induced by SP ([1]; guinea pigs, higher doses of 0.1 mg/kg p.o., FIG. 5.1): significant inhibition
inhibition of scratching behaviour induced by SP ([1]; guinea pigs, lower doses of 0.03 mg/kg p.o., FIG. 5.2): tendency to inhibit
inhibition of scratching behaviour induced by SP, dose dependency ([1]; guinea pigs, p.o., 1 h before SP, FIG. 5): inhibited the scratching behaviour induced by SP dose dependently
scratching behavior count induced by SP ([2]; 30 mg/kg p.o.): 21.1±6.1 beats/60 min
scratching behaviour count induced by SP ([2]; 30 mg/kg p.o., FIG. 2a, control 59.0±6.0/60 min): 29.9±6.6 beats/60 min
dose dependency of effect on SP-induced scratching behavior ([2]; 10 and 30 mg/kg p.o., FIG. 3, vehicle 51.0±12.9 beats/60 min): inhibited the scratching induced by SP, and the effect was dose dependent
overall effect on scratching behaviour (conclusion) ([2]; ddY mice, effect similar to epinastine): apparent inhibitory effect

CN(CCc1cc(C(F)(F)F)cc(C(F)(F)F)c1)C(=O)[C@H](c1ccccc1)N1CCC(NC(CO)CO)CC1 [Compound Id, (S)-N-[2-(3,5-Bis-trifluormethyl-phenyl)-ethyl]-2-[4-(2-hydroxy-1-hydroxymethyl-ethylamino)-piperidin-1-yl]-N-methyl-2-phenylacetamid]
inhibition of scratching behaviour induced by substance P ([1]; guinea pigs, 0.3, 1.0 and 3.0 mg/kg p.o., FIG. 6): inhibited
effect on SP-induced scratching compared with Compounds Ia and Ib [2]: Comparable results

CN(CCc1cc(C(F)(F)F)cc(C(F)(F)F)c1)C(=O)[C@H](c1ccccc1)N1CCC(N(C)CCCO)CC1 [Ic, (S)-N-[2-(3,5-Bis-trifluormethyl-phenyl)-ethyl]-2-{4-[(3-hydroxy-propyl)-methyl-amino]-piperidin-1-yl}-N-methyl-2-phenyl-acetamide]
effect on SP-induced scratching compared with Compounds Ia and Id ([1]; guinea pigs): Comparable results
effect on SP-induced scratching compared with Compounds Ia and Ib [2]: Comparable results

NC1=NCC2c3ccccc3Cc3ccccc3N12 (stereo not shown) [epinastine, reference compound]
effect on SP-induced scratching [3]: significant effect
scratching behavior count induced by SP ([2]; 10 mg/kg p.o.): 20.0±8.4 beats/60 min
scratching behaviour count induced by SP ([2]; 10 mg/kg p.o., FIG. 2b, control 51.6±7.8/60 min): 33.7±4.0 beats/60 min

(S)-N-[2-(3,5-Bis-trifluormethyl-phenyl)-ethyl]-2-{4-[cyclopropylmethyl-(3-hydroxy-propyl) -amino]-piperidin-1-yl}-N-methyl-2-phenyl-acetamid [Compound Ib]
effect on SP-induced scratching compared with Compounds Ia and Id ([1]; guinea pigs): Comparable results
inhibition of scratching behaviour induced by substance P ([2]; 30 mg/kg p.o., FIG. 4): inhibited
